Measured values taken from patent publication US20110269778A1, “NOVEL DIPHENYL PURINE DERIVATIVES USEFUL AS MODULATORS OF NICOTINIC ACETYLCHOLINE RECEPTORS” (NEUROSEARCH A/S, priority 2008, published 2011).

Assays:
[1] = target: T1, wild-type nAChR α7 receptors (Homo sapiens, UniProt P36544); assay: Positive modulation of wild-type nAChR α7 receptors expressed in Xenopus laevis oocytes, two-electrode voltage clamp; format: cell-based; conditions: for Emax: maximal modulation of the control response to 100 μM acetylcholine, (test-control)/control×100%, from fitted concentration response curve, read-out: EC50 Imax; for EC50: positive modulation of current induced by 100 μM acetylcholine, oocytes clamped at −60 mV, test compound 0.01-31.6 μM applied 30 s before and during acetylcholine
T1 construct: expressed in transfected cells; host or cells: Xenopus laevis oocytes
T1 sequence (P36544 23-502): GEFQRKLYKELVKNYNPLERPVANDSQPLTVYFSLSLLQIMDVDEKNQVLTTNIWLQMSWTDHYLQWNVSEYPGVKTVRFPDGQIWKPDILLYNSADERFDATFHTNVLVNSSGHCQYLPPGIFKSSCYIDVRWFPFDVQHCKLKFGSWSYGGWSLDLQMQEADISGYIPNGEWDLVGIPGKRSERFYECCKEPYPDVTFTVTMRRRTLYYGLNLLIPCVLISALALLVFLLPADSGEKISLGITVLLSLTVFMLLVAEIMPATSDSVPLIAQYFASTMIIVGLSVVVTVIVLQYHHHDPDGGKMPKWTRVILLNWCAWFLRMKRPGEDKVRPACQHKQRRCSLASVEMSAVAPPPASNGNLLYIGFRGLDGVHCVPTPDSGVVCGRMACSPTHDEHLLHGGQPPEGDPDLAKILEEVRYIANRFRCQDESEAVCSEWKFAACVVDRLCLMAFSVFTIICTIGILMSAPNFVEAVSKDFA
Description: In this example the positive modulation of wild-type nAChR α7 receptors by the compounds of the invention was determined using nAChR α7 receptors heterologously expressed in Xenopus laevis oocytes.
The electrical current through the nAChR α7 channel was measured using conventional two-electrode voltage clamp and nAChR α7 currents were activated by applying pulses of agonist-containing solution onto the nAChR α7 expressing oocyte.
In brief, the oocytes were placed in a recording chambers and continuously super-fused with an Oocyte Ringer (OR) solution containing 90 mM NaCl, 2.5 mM KCl, 2.5 mM CaCl2, 1 mM MgCl2 and 5 mM HEPES (pH adjusted to 7.4). The oocytes were clamped at −60 mV and currents were induced by applying 20 s pulses of 100 μM acetylcholine dissolved in OR. The intervals between the acetylcholine applications were 5 minutes, during which the oocytes were washed with OR. The first three applications were control applications to insure a constant response level of 100 μM acetylcholine. For the subsequent test applications, increasing concentrations (0.01-31.6 μM) of the test compound were applied 30 s before and during the acetylcholine (100 μM) application, which caused a robust increase in the acetylcholine-induced current amplitude.
The positive modulation in the presence of Compound 4 was calculated as (test-control)/control×100% and the concentration response curve for this positive modulation was fitted to the sigmoidal logistic equation: I=Imax/(1+(EC50/[compound])^n), where Imax represents the maximal modulation of the control response, EC50 is the concentration causing a half maximal response, and n is the slope coefficient.

SMILES	Emax [1] [%]	EC50 [1] [µM]	melting point [°C]
COc1ccc(-n2cnc3c(-c4ccc(C(F)(F)F)cc4F)ncnc32)cc1 [Compound 1, 6-(2-Fluoro-4-trifluoromethyl-phenyl)-9-(4-methoxy-phenyl)-9H-purine]	45	1.2	181.4 to 182.8
Oc1ccc(-n2cnc3c(-c4ccc(C(F)(F)F)cc4F)ncnc32)cc1 [Compound 2, 4-[6-(2-Fluoro-4-trifluoromethyl-phenyl)-purin-9-yl]-phenol]	120	5.8	205.2 to 206.4
NS(=O)(=O)c1ccc(-n2cnc3c(-c4ccc(C(F)(F)F)cc4F)ncnc32)cc1 [Compound 3, 4-[6-(2-Fluoro-4-trifluoromethyl-phenyl)-purin-9-yl]-benzenesulfonamide]	44	9.5	243.8 to 245
COc1ccc(-n2c(=O)[nH]c3c(-c4ccc(C(F)(F)F)cc4F)ncnc32)cc1 [Compound 4, 6-(2-Fluoro-4-trifluoromethyl-phenyl)-9-(4-methoxy-phenyl)-7,9-dihydro-purin-8-one]	1.6	3.2	295.9 to 297.2
O=c1[nH]c2c(-c3ccc(C(F)(F)F)cc3F)ncnc2n1-c1ccc(O)cc1 [Compound 5, 6-(2-Fluoro-4-trifluoromethyl-phenyl)-9-(4-hydroxy-phenyl)-7,9-dihydro-purin-8-one]	82	33	276.4 to 277.9
COc1ccc(-n2nnc3c(-c4ccc(C(F)(F)F)cc4F)ncnc32)cc1 [Compound 6, 7-(2-Fluoro-4-trifluoromethyl-phenyl)-3-(4-methoxy-phenyl)-3H-[1,2,3]-triazolo[4,5-d]pyrimidine]	7.3		175.4 to 176.8
Oc1ccc(-n2nnc3c(-c4ccc(C(F)(F)F)cc4F)ncnc32)cc1 [Compound 7, 4-[7-(2-Fluoro-4-trifluoromethyl-phenyl)-[1,2,3]triazolo[4,5-d]pyrimidin-3-yl]-phenol]	28	5.9	210.2 to 211.8
